In ChEMBL document CHEMBL3286231, “Synthesis and biological effects of new hybrid compounds composed of benzylguanidines and the alkylating group of busulfan on neuroblastoma cells” (Bioorg Med Chem Lett, 2014):
Active and inactive are the calls of the source. No cut-off for these calls is given here.

How the values were obtained:
LS [1] = assay: (§1) Increase in glycolysis in human LS cells assessed as conversion of glucose to lactate at 100 uM after 12 hrs relative to untreated control; assay type: functional
Kelly [2] = assay: Antiproliferative activity against human Kelly cells at 10 to 100 uM after 72 hrs by MTT assay; assay type: functional, cell-based
Kelly [3] = assay: (§2) Increase in glycolysis in human Kelly cells assessed as conversion of glucose to lactate at 100 uM after 12 hrs relative to untreated control; assay type: functional
LS [4] = assay: Antiproliferative activity against human LS cells at 10 to 100 uM after 72 hrs by MTT assay; assay type: functional, cell-based
SIMA [5] = assay: Increase in glycolysis in human SiMa cells assessed as conversion of glucose to lactate at 100 uM after 12 hrs relative to untreated control; assay type: functional
SK-N-SH [6] = assay: Antiproliferative activity against human SK-N-SH cells at 10 to 100 uM after 72 hrs by MTT assay; assay type: functional, cell-based
SIMA [7] = assay: Antiproliferative activity against human SiMa cells at 10 to 100 uM after 72 hrs by MTT assay; assay type: functional, cell-based
LS [8] = assay: Antiproliferative activity against human LS cells after 72 hrs by MTT assay; assay type: functional, cell-based
SK-N-SH [9] = assay: Antiproliferative activity against human SK-N-SH cells after 72 hrs by MTT assay; assay type: functional, cell-based
SIMA [10] = assay: Antiproliferative activity against human SiMa cells after 72 hrs by MTT assay; assay type: functional, cell-based
Kelly [11] = assay: Antiproliferative activity against human Kelly cells after 72 hrs by MTT assay; assay type: functional, cell-based
[12] = as §1; assay type: functional
[13] = as §2; assay type: functional

| SMILES | Activity (LS [1]) | Activity (Kelly [2]) | Activity (Kelly [3]) | Activity (LS [4]) | Activity (SIMA [5]) | Activity (SK-N-SH [6]) | Activity (SIMA [7]) | Activity (LS [8]) | Activity (SK-N-SH [9]) | Activity (SIMA [10]) | Activity (Kelly [11]) | Activity [12] [%] | Activity [13] [%] |
| --- | --- | --- | --- | --- | --- | --- | --- | --- | --- | --- | --- | --- | --- |
| CS(=O)(=O)OCCCCOS(C)(=O)=O | inactive | Active | inactive | Active | inactive | Active | Active | – | – | – | – | – | – |
| CS(=O)(=O)OCCCCOc1ccc(CNC(=N)N)cc1 | Active | – | Active | – | Active | – | – | Dose-dependent effect | Dose-dependent effect | Dose-dependent effect | Dose-dependent effect | – | – |
| CS(=O)(=O)OCCCCOc1cccc(CNC(=N)N)c1 | Active | – | Active | – | Active | – | – | Dose-dependent effect | Dose-dependent effect | Dose-dependent effect | Dose-dependent effect | – | – |
| N=C(N)NCc1cccc(I)c1 [IOBENGUANE] | – | Active | – | Active | 98% | Active | Active | – | – | – | – | 81 | 74 |
